# From PubChem BioAssay AID179 (DTP/NCI, 2004)
# Activity calls are given as the source filed them.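 Rule for the calls: active = compounds giving half or more protection of infected cells from virus-caused growth loss, again on retest; inactive = the rest.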 Where a SMILES comes first, the peptide text is derived from it. Bridges are numbered along the chain shown (N, C = ends). The star is where a group is joined. OSu = O=C1CCC(=O)N1O*
# Tested on: CEM cells HIV-1 protection, formazan growth assay
# Assay: NCI AIDS Antiviral Assay
# Details: for IC50: measured here: growth of uninfected CEM cells
# Outline: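 Steps: treat uninfected and HIV-1-infected human CEM cells at five drug levels; quantify growth by soluble formazan; retest any compound reaching 50% protection; classify actives from the retest.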
Compound,EC50 [µM],IC50 [µM],outcome
C/C(=N\NS(=O)(=O)c1ccc(C)cc1)c1ccccn1,> 200,58.9,–
CC(C)n1c2c(c3ccccc3c1=O)C(=O)c1ccccc1-2,> 64.6,> 64.6,–
O=C1CCC(c2ccccc2)=NN1c1nsc2ccccc12,> 85.1,> 85.1,–
O=C(NC1C(=O)NNC1c1ccccc1Cl)c1ccccc1 (centres undefined),> 158,> 158,–
O=c1n(Cc2ccccc2)c(=O)n2c(=O)n(Cc3ccccc3)c(=O)n12,> 200,148,–
Nc1cc(F)ccc1CC(=O)O,> 200,> 200,–
O=C(/C=C1/NC(=O)CS1)Nc1ccccc1,> 380,182,–
C=CCC1(O)C(CO[Si](C)(C)C(C)(C)C)OC(n2ccc(=O)[nH]c2=O)C1O[Si](C)(C)C(C)(C)C (centres undefined),> 200,10.2,–
O=C1CCc2ccc3c(c21)CC1(Cc2ccccc2C1)C3,> 200,> 200,–
C=CCOc1cc2c(cc1C(C)c1ccc(OC)cc1)OCO2 (centres undefined),> 32.4,0.708,–
CC1=CC(C)(c2c[nH]c3ccccc23)CC(C)(C)c2c1[nH]c1ccccc21 (centres undefined),–,–,inactive
N#CC(C#N)=CSc1ccccc1,–,–,inactive
Clc1ccc(-c2cc3nc4ccccc4nc3o2)cc1,> 100,> 100,–
COc1ccc(C(=O)NNC(=O)c2nsc3ccccc23)cc1,> 41.7,> 41.7,–
CN1CC[C@@H](O)C(CNC23CC4CC(CC(C4)C2)C3)C1 (some centres undefined),> 200,> 200,–
Cc1ccc2c(c1)-c1c3c(nn1-c1ccccc1)-c1ccccc1SC3O2 (centres undefined),> 3.89,> 3.89,–
Cc1ccc(SSc2ccc(C)cc2)cc1,> 20,3.55,inactive
CNC(=O)c1ccccc1CNC(=S)Nc1cccc(C)c1,> 200,> 200,–
CCC1C(=O)OCc2c1cc1n(c2=O)C(CC)c2c-1nc1ccccc1c2Cl (centres undefined),> 10,4.68,–
NCCCCC(NC(=O)C(N)Cc1ccc(O)cc1)C(=O)NC(CCCCN)C(=O)NC(CCCCN)C(=O)ON1C(=O)CCC1=O (centres undefined) (H-YKKK-OSu; configuration not given here),162,> 200,–
COc1ccc(C(=O)C(C(=O)CCC(=O)Nc2cccc(Cl)c2)c2ccc(OC)cc2)cc1 (centres undefined),> 15.5,> 15.5,–

Compound,EC50 [µM],IC50 [µM],outcome
Cc1[nH]c(=S)[nH]c(=O)c1CCl,> 200,107,–
Cc1ccc([N+](=O)[O-])cc1NC(=O)C(=O)C(C(=O)c1ccccc1F)C1OC(=O)c2ccccc21 (centres undefined),> 275,8.32,–
COC(=O)/C(=N/O)C(C(=O)C=C(C)C)C(=O)C(=O)Nc1nc2ccc([N+](=O)[O-])cc2s1 (centres undefined),> 41.7,32.4,–
CSc1nc2c(nc(N)n2C2OCC(O)C(O)C2O)c(=O)[nH]1 (centres undefined),–,–,inactive
Cc1cccc(C)c1N=Nc1ccc(O)c(CN(C)C)c1,> 200,39.8,–
COc1cc2c(cc1OC)C(C1C(=O)CC(C)(C)CC1=O)NCC2 (centres undefined),–,–,inactive
Cc1nn(C(=O)Cc2ccccc2)c2c1C(c1ccccc1)SC(N)=N2 (centres undefined),148,195,–
CCOC(=O)C(=Cn1c(=S)[nH]c2cc(C)ccc21)C(=O)OCC,> 200,> 200,–
CC(C)CC(C#N)C(N)=O (centres undefined),> 200,> 200,–
Nc1ccc2cc(S(=O)(=O)O)c(N=Nc3ccc(-c4ccc(N=Nc5c(S(=O)(=O)O)cc6cc(S(=O)(=O)O)cc(N)c6c5O)cc4)cc3)c(O)c2c1,–,–,inactive
Cc1ccc(C(=O)CC2=Nc3nnc(CCCCCCCc4nnc5n4C(=O)C(CC(=O)c4ccc(C)cc4)=N5)n3C2=O)cc1,> 2.4,> 2.4,–
CC(C)C1CNC(=O)C2(C=NC(C(C)C)CNC(=O)C3(C=N1)CCCO3)CCCO2 (centres undefined),> 12.3,> 12.3,–
O=S1Cc2ccccc2CS1 (centres undefined),–,–,inactive
Nc1ccc(C(c2ccccc2)(c2ccccc2)c2ccccc2)cc1,–,–,inactive
COc1ccc(NC(=S)N/N=C/c2cccc(C)n2)cc1,> 200,4.9,–
O=C1Nc2cc(Cl)ccc2N=CC1NC(=O)C(c1ccccc1)c1ccccc1Cl (centres undefined),> 295,219,–
S=C(N/N=C(/c1ccccc1)c1ccccn1)N1CCCCCC1,> 0.2,0.115,–
Cc1cc(N=O)cc(Cl)c1O,> 200,10.5,–
COc1ccc(NS(=O)(=O)c2ccc(NC(NC(=O)CC(C)C)(C(F)(F)F)C(F)(F)F)cc2)nn1,> 200,191,–
c1ccc2c(c1)nnn1c3ncccc3nc21,> 58.9,23.4,–
CO[C@H]1/C=C/O[C@@]2(C)Oc3c(C)c(O)c4c(O)c(c(/C=N/N5CCNCC5)c(O)c4c3C2=O)NC(=O)/C(C)=C\C=C\[C@H](C)[C@H](O)[C@@H](C)[C@@H](O)[C@@H](C)C(OC(C)=O)[C@@H]1C (some centres undefined),> 200,50.1,–

Compound,EC50 [µM],IC50 [µM],outcome
Cc1cccc(C)c1N1C(=O)C2c3[nH]c4ccccc4c3C3CCC(C(C)(C)C)CC3C2C1=O (centres undefined),> 200,12.3,–
Cc1cn(C2COC(CO)C2CO)c(=O)[nH]c1=O (centres undefined),44.7,> 200,–
C/C(=N\NS(=O)(=O)c1ccc(C)cc1)C(CN1CCCCC1)C(c1ccccc1)c1c(O)c2ccccc2oc1=O (centres undefined),> 58.9,49,–
CC(=O)O[C@H]1CC[C@@]2(C)C(=CC[C@H]3[C@@H]4CC[C@H]([C@H](C)C(=O)OCC5OC(n6cc(C)c(=O)[nH]c6=O)CC5N=[N+]=[N-])[C@@]4(C)CC[C@@H]32)C1 (some centres undefined),> 200,4.79,–
O=c1oc2ccccc2c(O)c1C(c1ccc(/C=C/c2ccccc2)cc1)c1c(O)c2ccccc2oc1=O,> 200,15.1,–
Cc1c(Cc2ccccc2)n(COCCCO)c(=O)[nH]c1=O,138,> 200,–
CC1(C)CC2=C(CC3C4C=C5CC(C)(C)OC(=O)C5(C4)C23)C(=O)O1 (centres undefined),> 87.1,> 87.1,–
CCOC(=O)C1CSSCC(N)C(=O)N1 (stereo not drawn) (H-Cys-Cys-OEt; disulfide 1-2; configuration not given here),> 200,> 200,–
CC(=O)[O-].[Mn+3].[O-]c1ccc(Cl)cc1C=NCCN=Cc1cc(Cl)ccc1[O-],> 240,12,–
CCOC(=O)c1no[n+]([O-])c1C(=O)OCC,> 200,5.75,–
OC12CCC[N+]1(Cc1ccccc1)CCC2 (centres undefined),> 794,708,–
CC1(C)OC2C(=O)O[C@H](CO)C2O1 (some centres undefined),> 200,> 200,–
Cn1ncc2[nH]cnc2c1=S,> 200,26.9,–
O=c1[nH]cnc2c1ncn2C1CCC(CO)O1 (centres undefined),6.03,50.1,–
CC(C)(C)c1ccc(-n2c3nc(=O)n(-c4ccccc4CO)c(=O)c-3cc3ccccc32)cc1,> 200,23.4,–
COc1ccc(OC)c(/C=C2\C=Cc3ccccc32)c1,> 38,6.46,–
CSc1ncnc2nc(C(O)c3ccccc3)[nH]c12 (centres undefined),–,–,inactive
COc1ccc(NC(=O)C(=O)NNC(=O)c2sc(NNC(C)=O)nc2C)c([N+](=O)[O-])c1,> 30.2,> 30.2,–
Cn1cc(C2NC(=O)c3ccccc3N2)c2ccccc21 (centres undefined),> 200,0.117,–
CCOC(=O)NC(=O)c1cn(CC(=O)NCC(=O)NCC(=O)N2CCN(CCn3c(C)nc(C(N)=O)c3N)CC2)c(=O)[nH]c1=O,–,–,inactive
O=[N+]([O-])c1cccc(S(=O)(=O)c2cccc([N+](=O)[O-])c2)c1,> 200,> 200,–

Compound,EC50 [µM],IC50 [µM],outcome
CC(=O)c1sc(=N)n(-c2c(C)cccc2C)c1C,> 200,> 200,–
O=C1NC(=O)/C(=C\c2ccccc2)C2=C1CCCC2,> 74.1,15.5,–
CC1(C)OC2C(O)CN3CCS[C@H]3C2O1 (some centres undefined),> 200,> 200,–
COc1cc2c(cc1OC)C1Cc3ccc(OC)c(OC)c3C[N+]1([O-])CC2 (centres undefined),> 135,> 135,–
CC(C)OP(=O)(OC(C)C)C(=Nc1ccccc1)NNc1ccc([N+](=O)[O-])cc1,> 32.4,21.9,–
O=c1c2c([nH]c3ccccc13)CSC2,> 67.6,> 67.6,–
O=[N+]([O-])c1cccc(C2=NN(c3ccccc3)C3c4ccccc4OCC23)c1 (centres undefined),> 7.41,> 7.41,–
CN(C)CCCNC(=O)c1cc(NC(=O)c2cc(NC(=O)c3cc(NC(=O)c4ccc(C(=O)Nc5cc(C(=O)Nc6cc(C(=O)Nc7cc(C(=O)NCCCN(C)C)n(C)c7)n(C)c6)n(C)c5)cc4)cn3C)cn2C)cn1C,> 100,> 100,–
CCCCCC1C(=O)N2C=C(c3ccccc3)c3ccccc3N2C1=O (centres undefined),–,–,inactive
C=CC[C@@]12CC(C=CC13OCCO3)OC(=O)[C@@H]2C,> 200,> 200,–
CCCCC[C@@H]1CCC[C@H]2NC(CCCCC3OCCO3)CC[C@@H]12 (some centres undefined),–,–,inactive
CN1CC2CN(Cc3ccccc3)CCN2c2cccnc21 (centres undefined),> 200,81.3,–
CC(C)(C)OC(=O)NCC(CNC(=O)OC(C)(C)C)c1nc(C(N)=O)cs1,> 200,> 200,–
Cc1cc(Cl)nc(Nc2nc3ccccc3[nH]2)n1,> 200,> 200,–
C=C(C)[C@@H]1CC[C@]2(C)CC[C@@]3(C)[C@]4(C)CC[C@H]5C(C)(C)[C@@H](OC(=O)CCC(=O)O)CC[C@]5(C)[C@H]4CC[C@]3(C)[C@@H]12,44.7,> 100,–
CC(C(=O)NCNC(=O)c1ccccc1)C(=O)Nc1ccccc1 (centres undefined),–,–,inactive
CN(C)C(=O)/N=C1\SC(=Nc2ccccc2)C(=Nc2ccccc2)N1c1ccc([N+](=O)[O-])cc1,–,–,inactive
CN(C)c1ccc(-c2nn(C)c3nc(=O)n(C)c(=O)c-3[n+]2[O-])cc1,> 200,0.562,–
COc1ccc(/C(C)=N/NC(=O)CC(=O)N(C(=O)c2ccccc2)c2ccc(C)cc2)cc1,> 16.2,> 16.2,–
CN1C/C(=C\c2ccncc2)C(=O)/C(=C/c2ccncc2)C1,52.5,> 200,–
